Drawing on US8877751B2, “Benzothiazolone derivatives” (Merck Patent GmbH, priority 2009, dated 2014), this text covers IC50 for 15 compounds.

The test deals with T1, Met kinase (Homo sapiens, UniProt P08581).
T1 construct: 6His (N); purchased Upstate 14-526; host or cells: Sf21 insect cells (S. frugiperda), baculovirus
Briefly: Met kinase inhibition (enzyme assay), flashplate method. It counts as biochemical. An excerpt:
According to the manufacturer's data (Met, active, Upstate, catalogue No. 14-526), Met kinase is expressed for the purposes of protein production in insect cells (Sf21; S. frugiperda) and subsequent affinity-chromatographic purification as “N-terminal 6His-tagged” recombinant human protein in a baculovirus expression vector.
Flashplate Method (Met Kinase)
The test plates used are 96-well Flashplate^R microtitre plates from Perkin Elmer (Cat. No. SMP200). The components of the kinase reaction described below are pipetted into the assay plate. The Met kinase and the substrate poly Ala-Glu-Lys-Tyr, (pAGLT, 6:2:5:1), are incubated for 3 hrs at room temperature with radioactively labelled ^33P-ATP in the presence and absence of test substances in a total volume of 100 μl. The reaction is terminated using 150 μl of a 60 mM EDTA solution. After incubation for a further 30 min at room temperature, the supernatants are filtered off with suction, and the wells are washed three times with 200 μl of 0.9% NaCl solution each time. The measurement of the bound radioactivity is carried out by means of a scintillation measuring instrument (Topcount NXT, Perkin-Elmer).
The full value used is the inhibitor-free kinase reaction. This should be approximately in the range 6000-9000 cpm. The pharmacological zero value used is staurosporin in a final concentration of 0.1 mM. The inhibitory values (IC50) are determined using the RS1_MTS program.
Kinase reaction conditions per well: • 30 μl of assay buffer • 10 μl of substance to be tested in assay buffer with 10% of DMSO • 10 μl of ATP (final concentration 1 μM cold, 0.35 μCi of ^33P-ATP) • 50 μl of Met kinase/substrate mixture in assay buffer; • (10 ng of enzyme/well, 50 ng of pAGLT/well)
Solutions Used: • Assay buffer: • 50 mM HEPES • 3 mM magnesium chloride • 3 μM sodium orthovanadate • 3 mM manganese(II) chloride • 1 mM dithiothreitol (DTT) • pH=7.5 (to be set using sodium hydroxide) • Stop solution: • 60 mM Titriplex III (EDTA) • ^33P-ATP: Perkin-Elmer; • Met kinase: Upstate, Cat. No. 14-526, Stock 1 μg/10 μl; spec. activity 954 U/mg; • Poly-Ala-Glu-Lys-Tyr, 6:2:5:1: Sigma Cat. No. P1152

T1 sequence (P08581 25-1390): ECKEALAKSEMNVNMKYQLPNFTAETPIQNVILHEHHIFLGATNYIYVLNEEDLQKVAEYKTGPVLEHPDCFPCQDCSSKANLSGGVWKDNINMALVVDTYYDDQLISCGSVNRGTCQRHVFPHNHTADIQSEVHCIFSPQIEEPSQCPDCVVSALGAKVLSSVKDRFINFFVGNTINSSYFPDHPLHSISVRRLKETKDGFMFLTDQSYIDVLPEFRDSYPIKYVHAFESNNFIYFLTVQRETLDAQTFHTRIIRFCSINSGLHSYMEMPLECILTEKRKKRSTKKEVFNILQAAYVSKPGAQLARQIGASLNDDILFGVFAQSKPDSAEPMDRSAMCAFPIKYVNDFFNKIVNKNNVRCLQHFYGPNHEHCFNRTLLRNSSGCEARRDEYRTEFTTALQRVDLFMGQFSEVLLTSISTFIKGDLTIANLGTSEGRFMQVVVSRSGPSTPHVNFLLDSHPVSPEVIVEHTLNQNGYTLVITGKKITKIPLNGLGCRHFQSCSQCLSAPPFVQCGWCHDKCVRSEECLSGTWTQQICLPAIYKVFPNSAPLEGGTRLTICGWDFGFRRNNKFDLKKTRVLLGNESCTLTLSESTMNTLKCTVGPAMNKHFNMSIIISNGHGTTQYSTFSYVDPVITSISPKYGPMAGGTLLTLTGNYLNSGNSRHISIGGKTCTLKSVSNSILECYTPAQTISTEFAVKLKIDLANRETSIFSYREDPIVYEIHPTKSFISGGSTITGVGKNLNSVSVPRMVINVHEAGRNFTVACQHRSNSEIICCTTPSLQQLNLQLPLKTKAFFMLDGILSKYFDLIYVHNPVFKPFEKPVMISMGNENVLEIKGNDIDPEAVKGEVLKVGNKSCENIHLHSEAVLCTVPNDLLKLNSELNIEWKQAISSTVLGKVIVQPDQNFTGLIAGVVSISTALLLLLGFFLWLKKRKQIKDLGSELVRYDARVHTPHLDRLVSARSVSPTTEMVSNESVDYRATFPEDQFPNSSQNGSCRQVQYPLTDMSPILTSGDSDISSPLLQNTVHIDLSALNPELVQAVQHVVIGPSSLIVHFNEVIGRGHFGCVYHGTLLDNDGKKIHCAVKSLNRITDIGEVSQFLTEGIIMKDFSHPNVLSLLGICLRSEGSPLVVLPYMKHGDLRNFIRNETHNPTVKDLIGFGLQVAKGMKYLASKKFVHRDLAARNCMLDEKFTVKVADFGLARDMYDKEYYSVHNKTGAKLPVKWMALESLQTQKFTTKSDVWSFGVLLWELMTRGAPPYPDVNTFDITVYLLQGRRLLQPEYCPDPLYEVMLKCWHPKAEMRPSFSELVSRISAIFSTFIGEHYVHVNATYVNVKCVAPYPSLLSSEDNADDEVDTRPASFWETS

In turn, `O=c1sc2ccc(C(F)(F)F)cc2n1Cc1cccc(-c2ncc(OCCN3CCOCC3)cn2)c1` [Compound A1, 3-{3-[5-(2-morpholin-4-ylethoxy)pyrimidin-2-yl]benzyl}-5-trifluoromethyl-3H-benzothiazol-2-one] showed an IC50 of 10 to 1000 nM.

`CN(C)CCCOc1cnc(-c2cccc(Cn3c(=O)sc4ccc(C(F)(F)F)cc43)c2)nc1` [Compound A5, 3-{3-[5-(3-dimethylaminopropoxy)pyrimidin-2-yl]benzyl}-5-trifluoromethyl-3H-benzothiazol-2-one]: the IC50 is 10 to 1000 nM.

`CN1CCN(c2cnc(-c3cccc(Cn4c(=O)sc5ccc(C(F)(F)F)cc54)c3)nc2)CC1` [Compound A11, 3-{3-[5-(4-methylpiperazin-1-yl)pyrimidin-2-yl]benzyl}-5-trifluoromethyl-3H-benzothiazol-2-one] gave an IC50 of 10 to 1000 nM.

As to `O=c1sc2ccc(C(F)(F)F)cc2n1Cc1cccc(-c2ncc(OCC3CCNCC3)cn2)c1` [Compound A8, 3-{3-[5-(piperidin-4-ylmethoxy)pyrimidin-2-yl]benzyl}-5-trifluoromethyl-3H-benzothiazol-2-one], the IC50 fell in the range of 10 to 1000 nM.

`CCC(=O)c1ccc2c(c1)sc(=O)n2Cc1cccc(-c2ncc(OCCN3CCOCC3)cn2)c1` [Compound A3a, 3-{3-[5-(2-Morpholin-4-ylethoxy)pyrimidin-2-yl]benzyl}-6-propionyl-3H-benzothiazol-2-one] registered a 50% inhibitory concentration (IC50) of 10 to 1000 nM.

In the case of `CC(=O)c1ccc2c(c1)sc(=O)n2Cc1cccc(-c2ncc(OCCN3CCOCC3)cn2)c1` [Compound A3, 6-Acetyl-3-{3-[5-(2-morpholin-4-ylethoxy)pyrimidin-2-yl]benzyl}-3H-benzothiazol-2-one], the IC50 was 10 to 1000 nM.

`CCOC(=O)Nc1cccc(Cn2c(=O)sc3ccc(Cl)cc32)c1` [Compound A14, ethyl [3-(5-chloro-2-oxobenzothiazol-3-ylmethyl)phenyl]carbamate] gave a half-inhibitory concentration (IC50) of 10 to 1000 nM.

For the compound `Cc1nc(-c2cccc(Cn3c(=O)sc4ccc(Cl)cc43)c2)no1` [Compound A12, 5-chloro-3-[3-(5-methyl-1,2,4-oxadiazol-3-yl)benzyl]-3H-benzothiazol-2-one], the IC50 lay in the range of 10 to 1000 nM.

On to `CC(C)(C)OC(=O)N1CCC(COc2cnc(-c3cccc(Cn4c(=O)sc5ccc(C(F)(F)F)cc54)c3)nc2)CC1` [Compound A7, 3-{3-[5-(1-tert-Butoxycarbonylpiperidin-4-ylmethoxy)pyrimidin-2-yl]-benzyl}-5-trifluoromethyl-3H-benzothiazol-2-one], for which the IC50 fell in the range of 10 to 1000 nM.

`Cn1cc(-c2ccc3sc(=O)n(Cc4cccc(-c5ncc(OCCN6CCOCC6)cn5)c4)c3c2)cn1` [Compound A10, 5-(1-methyl-1H-pyrazol-4-yl)-3-{3-[5-(2-morpholin-4-ylethoxy)pyrimidin-2-yl]benzyl}-3H-benzothiazol-2-one] yielded an IC50 of 10 to 1000 nM.

In turn, `CN1CCN(CCCOC(=O)Nc2cccc(Cn3c(=O)sc4ccc(Cl)cc43)c2)CC1` [Compound A13, 3-(4-methylpiperazin-1-yl)propyl [3-(5-chloro-2-oxobenzothiazol-3-ylmethyl)phenyl]carbamate] returned an IC50 of 10 to 1000 nM.

For the compound `O=c1sc2ccc(C(F)(F)F)cc2n1Cc1cccc(-c2ncc(-c3cnn(CCN4CCCC4)c3)cn2)c1` [Compound A9, 3-(3-{5-[1-(2-pyrrolidin-1-ylethyl)-1H-pyrazol-4-yl]pyrimidin-2-yl}benzyl)-5-trifluoromethyl-3H-benzothiazol-2-one], the IC50 lay in the range of 10 to 1000 nM.

Take `O=c1sc2ccc(Cl)cc2n1Cc1cccc(-c2ncc(OCCN3CCOCC3)cn2)c1` [Compound A2, 5-Chloro-3-{3-[5-(2-morpholin-4-ylethoxy)pyrimidin-2-yl]benzyl}-3H-benzothiazol-2-one]: the concentration for half-maximal inhibition (IC50) fell in the range of 10 to 1000 nM.

In the case of `CN1CCC(COc2cnc(-c3cccc(Cn4c(=O)sc5ccc(C(F)(F)F)cc54)c3)nc2)CC1` [Compound A6, 3-{3-[5-(1-Methylpiperidin-4-ylmethoxy)pyrimidin-2-yl]benzyl}-5-trifluoromethyl-3H-benzothiazol-2-one], the IC50 fell in the range of 10 to 1000 nM.

The compound `O=c1sc2ccc(Br)cc2n1Cc1cccc(-c2ncc(OCCN3CCOCC3)cn2)c1` [Compound A4, 5-Bromo-3-{3-[5-(2-morpholin-4-ylethoxy)pyrimidin-2-yl]benzyl}-3H-benzothiazol-2-one] registered an IC50 of 10 to 1000 nM.

What is called IC50 is the concentration needed to halve the response being measured. High values mean a need for much substance, low ones inhibition by little substance.
